Among the data in PubChem BioAssay (NCI) are TGI values, retold here.

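Dose response: 5 concentrations. Exposure: 48 h. Format: 96-well plates. Endpoint: linear interpolation; highest concentration if not reached. Definition used: TGI = concentration required for complete inhibition of growth.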 A value given as a limit tells only on which side of the number the result lay.

Test systems include DMS 114 small cell lung; SN12K1 renal; M19-MEL melanoma; P388/ADR leukemia; P388 leukemia; HOP-18 NSCLC; DLD-1 colon; XF 498 CNS; LXFL 529 NSCLC; RXF-631 renal.
Common to all, as to test: NCI tumour cell line growth inhibition, 48 h

Turning to `CCOC(=O)/C(O)=C1\C(=O)N(C)C(=O)C1c1ccc(OC)c(OC)c1` (stereo not given), the TGI in the experiment with DMS 114 small cell lung is more than 100 µM; in the experiment on SN12K1 renal, more than 100 µM; in the experiment on M19-MEL melanoma, more than 100 µM; in the experiment with P388/ADR leukemia it was more than 31.6 µM; in the experiment on P388 leukemia, more than 100 µM; in the experiment with HOP-18 NSCLC, more than 100 µM. The TGI in the experiment with DLD-1 colon and in the experiment with XF 498 CNS was more than 100 µM each time.
For `O=C1C(Br)=CC2([N+](=O)[O-])CCNc3c(O)c4c5c(c3C2=C1Br)=NCCC=5C=N4` (stereo not given), the TGI in the experiment on DMS 114 small cell lung came to 0.545 µM; with SN12K1 renal, 14.7 µM; in the experiment on P388/ADR leukemia, 2.35 µM; in the experiment on P388 leukemia, 1.14 µM; in the experiment with HOP-18 NSCLC, 27.5 µM; in the experiment with DLD-1 colon, 1.49 µM. Also, the TGI in the experiment on XF 498 CNS was determined as 5.48 µM.
Turning to `CCCCCc1cc(OC(=O)c2c(O)cc(OC)cc2CCCCC)cc(O)c1C(=O)O`, the TGI in the experiment with DMS 114 small cell lung turned out to be 33.9 µM; in the experiment with M19-MEL melanoma it was 33.8 µM; in the experiment on LXFL 529 NSCLC it was 30.5 µM; in the experiment on DLD-1 colon, 26.7 µM; with XF 498 CNS, 32.5 µM.
With `O=C(c1ccc(Cl)cc1)c1ccc(OCC(=O)N2CCN(c3ccccc3)CC2)cc1`, the TGI in the experiment on DMS 114 small cell lung, in the experiment with M19-MEL melanoma, in the experiment on LXFL 529 NSCLC, in the experiment on HOP-18 NSCLC, in the experiment on DLD-1 colon and in the experiment on XF 498 CNS was more than 100 µM in each case.
Consider `COC(=O)C12Oc3ccc(-c4ccc5c(c4O)C(=O)C4=CCC(C)C(O)C4(C(=O)OC)O5)c(O)c3C(=O)C1=CCC(C)C2O` (stereo not given), for which the TGI amounted to 3.81 µM in the experiment on DMS 114 small cell lung; 3.63 µM with M19-MEL melanoma; 2.65 µM in the experiment with LXFL 529 NSCLC; 4.81 µM with RXF-631 renal; 6.56 µM with HOP-18 NSCLC; 2.14 µM with DLD-1 colon.
With `COc1ccc2c3c1OC1CC(O)C=CC31CCN(C)C2` (stereo not given), the TGI with DMS 114 small cell lung, in the experiment on SN12K1 renal, with M19-MEL melanoma, with P388/ADR leukemia, in the experiment with P388 leukemia and with HOP-18 NSCLC was more than 150 µM throughout. In addition, the TGI with DLD-1 colon was more than 54.1 µM; in the experiment on XF 498 CNS it was more than 150 µM.
In the case of `CC(=O)C1CC(C)=CCC12C(=O)Nc1ccccc12` (stereo not given), the TGI with DMS 114 small cell lung, with LXFL 529 NSCLC, with RXF-631 renal, in the experiment with HOP-18 NSCLC, with DLD-1 colon and in the experiment with XF 498 CNS was more than 100 µM throughout.
Take `COc1cc(OC)c2c(O)cc(CC(C)O)cc2c1` (stereo not given): the TGI in the experiment on DMS 114 small cell lung, in the experiment with M19-MEL melanoma, in the experiment with LXFL 529 NSCLC, in the experiment on RXF-631 renal, in the experiment with HOP-18 NSCLC and in the experiment on DLD-1 colon was more than 100 µM throughout. The same compound yielded a TGI with XF 498 CNS of more than 100 µM.
In the case of `COC1=CC(=O)c2ccccc2C1(CCC=C(C)C)C1=NC(C)(C)CO1` (stereo not given), the TGI in the experiment with M19-MEL melanoma, in the experiment on LXFL 529 NSCLC, with HOP-18 NSCLC and with DLD-1 colon was more than 100 µM in each case.
On to `N/N=C(\C(=O)Nc1c(Cl)cc([N+](=O)[O-])cc1Cl)C(c1cnc2ccc([N+](=O)[O-])cc2n1)[N+](=O)[O-]` (stereo not given), for which the TGI in the experiment on DMS 114 small cell lung, in the experiment on M19-MEL melanoma, in the experiment on DLD-1 colon and in the experiment with XF 498 CNS was more than 100 µM in each case.
For `CCOC/N=C(/N)NC#N`, the TGI in the experiment on DMS 114 small cell lung, with M19-MEL melanoma, in the experiment on LXFL 529 NSCLC, in the experiment on HOP-18 NSCLC, in the experiment on DLD-1 colon and in the experiment with XF 498 CNS was more than 100 µM throughout.
For the compound `COc1ccc2[nH]c3c(c2c1)CCN(C)CC3`, the TGI with M19-MEL melanoma, in the experiment on RXF-631 renal, with HOP-18 NSCLC, with DLD-1 colon and in the experiment with XF 498 CNS was more than 100 µM each time.
For `Cc1ccc(C(=O)N(C2CCCCC2)C2CCCCC2)cc1N=NN(C)C`, the TGI in the experiment with M19-MEL melanoma is 34 µM; with LXFL 529 NSCLC, 27.8 µM; in the experiment with DLD-1 colon it was 28.6 µM.
As for `CCCC/C=C1\CCC(CN2CCCCC2)C1=O` (stereo not given), the TGI in the experiment with DMS 114 small cell lung is 16.1 µM; in the experiment with M19-MEL melanoma, 34.5 µM; with LXFL 529 NSCLC, 3.26 µM; with RXF-631 renal, more than 65.2 µM; in the experiment with HOP-18 NSCLC it was 16.8 µM; in the experiment on DLD-1 colon it was 3.25 µM. In the experiment on XF 498 CNS, this compound returned a TGI of 6.58 µM.
Consider `COc1cccc2cc(C)c(C(=O)c3ccccc3)nc12`, for which the TGI in the experiment with DMS 114 small cell lung, in the experiment with M19-MEL melanoma, in the experiment on LXFL 529 NSCLC, in the experiment on RXF-631 renal, in the experiment on HOP-18 NSCLC and in the experiment on DLD-1 colon was more than 100 µM throughout. In the experiment on XF 498 CNS, this compound showed a TGI of more than 100 µM.
`CCCCOC(=O)CNC(=O)OCCCCC#CC#CCCCCOC(=O)NCC(=O)OCCCC`: the TGI in the experiment with DMS 114 small cell lung, in the experiment with M19-MEL melanoma, in the experiment on LXFL 529 NSCLC, with HOP-18 NSCLC, with DLD-1 colon and in the experiment with XF 498 CNS was more than 100 µM throughout.
